Source: patent US5041238A, “o,o'-Bridged oligophenylene laser dyes, dyestuff lasers and methods of lasing therewith” (Exciton Chemical Company, priority 1988, dated 1991)
One block for each compound: values may come before it.

How the values were obtained:
[1] = Fluorescence emission spectrum (Perkin-Elmer MPF-44A); format: physicochemical; details: for Fluorescence emission peak 1, intensity / Fluorescence emission peak 1, wavelength / Fluorescence emission peak 2, intensity / Fluorescence emission peak 2, wavelength: excitation 265 nm; for Fluorescence emission peak 1, intensity / Fluorescence emission peak 1, wavelength / Fluorescence emission peak 2, intensity / Fluorescence emission peak 2, wavelength / Fluorescence peak 1, intensity / Fluorescence peak 1, wavelength / Fluorescence peak 2, intensity / Fluorescence peak 2, wavelength: slits 2 nm
Description: (§1) The fluorescence emission spectrum for the dye 9,9-dipropylfluorene as illustrated in FIG. 1 was detected on a Perkin-Elmer MPF-44A, the slits were set at 2 nm and the excitation light was at 265 nm. The Fluorescence Quantum Efficiency (FQE) was about the same as that of fluorene - 55%; and the fluorescence emission peaks at 306 nm(intensity 86) and 316 nm(intensity 67) were also similar to those of fluorene [the fluorescence emission spectrum for fluorene as illustrated in FIG. 5 was also detected on a Perkin-Elmer MPF-44A, the slits were set at 2 nm and the excitation light was at 265 nm and the fluorescence emission peaks for fluorene are at 303 nm(intensity 93) and 311 nm(intensity 73)].
This dye had two fluorescence peaks of almost equal intensity at 360 nm(intensity 33) and 378 nm(intensity 28) as illustrated in FIG. 2. […] The fluorescence emission spectrum of the dye 9,9,9',9'-tetrapropyl-2,2'-bifluorene was detected on a Perkin-Elmer MPF-44A, the slits were set at 2 nm and the excitation light was at 331 nm.
(§2) This dye had fluorescence peaks at 324 nm(intensity 90) and 338 nm(intensity 76) and a reported fluorescence quantum yield of 100% in cyclohexane as illustrated in FIG. 3. […] The fluorescence emission spectrum for the dye 3-phenyldibenzofuran as illustrated in FIG. 3 was detected on a Perkin-Elmer MPF-44A, the slits were set at 2 nm and the excitation light was at 301 nm.
The dye, 3,3'-bi(dibenzofuran), was prepared in accordance with the process disclosed in H. O. Wirth, G. Waese and W. Kern: Synthese Und Eigenschaften Von: Oxydo-p-oligophenylenen. Makromol. Chem. 86: 139(1965) which is incorporated herein in its entirety by reference, and was purified by extraction from Brockmann Activity I alumina with chloroform in an Ace-Kauffman column to give a white solid, mp 249.5°-250.5° C. (lit.mp 252.5° C.). This dye had two fluorescence peaks of almost equal intensity at 353 nm(intensity 47) and 369 nm(intensity 30) in cyclohexane as illustrated in FIG. 4.

[2] = Solubilities of o,o'-bridged oligophenylenes at 21° C. in laser solvents; format: physicochemical; details: comparison in laser solvents
Method: SOLUBILITIES OF o,o'-BRIDGED OLIGOPHENYLENES AT 21° C.

[3] = cyclohexane; cited from earlier work
[4] = Fluorescence quantum efficiency / quantum yield; format: physicochemical
Description: as §1, §2

[5] = Violet fluorescence in alcohols; format: physicochemical
Method: The dye, 9,9'-diethyl-2,2'-bicarbazole, was prepared from the above intermediate as follows. To a mixture of 1.10 g (4 mMol) of 2-bromo-9-ethylcarbazole and 0.096 g of cut magnesium ribbon in 4 ml of refluxing ether was added 50 microliters of 1,2-dibromoethane. Refluxing was continued for 18 hrs. The solution was cooled and 386 microliters (0.455 g) of cis-1,4-dichloro-2-butene was added. As the solution was returned to reflux, a precipate appeared. After three hours the mixture was filtered. The solid was recrystallized from 2-methoxyethanol with a hot filtration to give 0.124 g (12% of theory) of product, mp 239°-40° C.

- Fluorescence emission peak 1, intensity [1]: 86
- Fluorescence emission peak 1, wavelength [1]: 306 nm
- Fluorescence emission peak 2, intensity [1]: 67
- Fluorescence emission peak 2, wavelength [1]: 316 nm
SMILES: CCCC1(CCC)c2ccccc2-c2ccccc21 [9,9-dipropylfluorene]

- Fluorescence peak 1, intensity ([1]; excitation 331 nm): 33
- Fluorescence peak 1, wavelength ([1]; excitation 331 nm): 360 nm
- Fluorescence peak 2, intensity ([1]; excitation 331 nm): 28
- Fluorescence peak 2, wavelength ([1]; excitation 331 nm): 378 nm
SMILES: CCCC1(CCC)c2ccccc2-c2ccc(-c3ccc4c(c3)C(CCC)(CCC)c3ccccc3-4)cc21 [9,9,9',9'-tetrapropyl-2,2'-bifluorene]
- Solubility compared with another dye (words) [2]: more soluble than 2,2'-bifluorene in solvents

- Fluorescence emission peak 1, intensity [1]: 93
- Fluorescence emission peak 1, wavelength [1]: 303 nm
- Fluorescence emission peak 2, intensity [1]: 73
- Fluorescence emission peak 2, wavelength [1]: 311 nm
SMILES: c1ccc2c(c1)Cc1ccccc1-2 [fluorene, reference compound]

- Solubility compared with another dye (words) [2]: much greater than that of p-terphenyl
- Fluorescence peak 1, intensity ([1]; cyclohexane, excitation 301 nm): 90
- Fluorescence peak 1, wavelength ([1]; cyclohexane, excitation 301 nm): 324 nm
- Fluorescence peak 2, intensity ([1]; cyclohexane, excitation 301 nm): 76
- Fluorescence peak 2, wavelength ([1]; cyclohexane, excitation 301 nm): 338 nm
- FQE in methanol compared with cyclohexane [4]: the same in methanol as in cyclohexane
SMILES: c1ccc(-c2ccc3c(c2)oc2ccccc23)cc1 [3-phenyldibenzofuran]
- Solubility compared with another dye (words) ([2]; listed as 3phenyldibenzofuran): much more soluble in methanol, 50% ethanol, 95% ethanol and absolute
- Fluorescence quantum yield (reported) [3]: 100%

SMILES: c1ccc2c(c1)oc1cc(-c3ccc4c(c3)oc3ccccc34)ccc12 [3,3'-bi(dibenzofuran)]
- Solubility compared with another dye (words) [2]: greater than that of 2,2'-bifluorene
- Fluorescence emission spectrum compared with dye of Example 2 [1]: almost superimposable on that of the dye discussed in Example 2
- Fluorescence peak 1, intensity ([1]; cyclohexane, excitation 323 nm): 47
- Fluorescence peak 1, wavelength ([1]; cyclohexane, excitation 323 nm): 353 nm
- Fluorescence peak 2, intensity ([1]; cyclohexane, excitation 323 nm): 30
- Fluorescence peak 2, wavelength ([1]; cyclohexane, excitation 323 nm): 369 nm

SMILES: CCn1c2ccccc2c2ccc(-c3ccc4c5ccccc5n(CC)c4c3)cc21 [9,9'-diethyl-2,2'-bicarbazole]
- Violet fluorescence in alcohols compared with compounds of Examples 2 and 4 [5]: brighter violet fluorescence in alcohols than the compounds of Examples 2 and 4
